# Experimental data: publication PMC5412883, “An intranasally delivered peptide drug ameliorates cognitive decline in Alzheimer transgenic mice” (EMBO Molecular Medicine, 2017)
# Where a SMILES comes first, the peptide text is derived from it. [ ]: non-standard residue; d: D form.
# Key:
# [1] = CD spectra and TEM of the single peptides (conformation, self-aggregation); type: physicochemical; details: 30 μM peptide in 20 mM sodium phosphate buffer with 150 mM KCl (pH 7), 25°C; for amyloid fibril formation (TEM): incubation for 168 h; for conformation by CD spectra: spectra largely unchanged with incubation time
# Method: The circular dichroism (CD) spectra were recorded at various time points as indicated. […] The CD spectra of both peptides remained largely unchanged with the incubation time.
# (§1) The 1.4 mM stock solution of each peptide in 75% trifluoroethanol was diluted to a final concentration of 30 μM in 20 mM sodium phosphate buffer with 150 mM KCl (PBS, pH 7). Each was incubated at 25°C for designated time points and placed in a 1‐mm cell to record the CD spectra between 200 and 250 nm on a J‐715 CD spectrometer (JASCO, Japan). The band width was set to 2 nm, and the step resolution was 0.05 nm. Each sample was scanned twice and the average of these two measurements was smoothed by the Savitzky–Golay method to get the final CD spectrum.
# (§2) The samples were deposited on carbon‐coated 300‐mesh copper grids, incubated for 3 min for absorption, and then washed by water. Negative staining was carried out by staining with 2% uranyl acetate for 1.5 min. After air drying, the samples were viewed using a Hitachi H‐7000 electron microscope (Hitachi, Japan).
# DR8-Aβ (25-35). The peptides were dissolved in 20 mM sodium phosphate b u ff e r with 150 mM KCl and incubated at 25 °C. Pept ide concentration is 30 µ M. (A-C) The CD spectra were recorded at the indicated incubation time shown in (A).(D -F) […]
# formed nucleus ver y fast and β -sheet signal (negative ellipticity at 218 nm) can be seen in the beginning of i ncubation. The CD spectra were not smoothed.
# (§3) (1 picture or pasted object on this page, not shown here)
# [2] = target: T1, Aβ40 (Homo sapiens, UniProt P05067); test: Inhibition of Aβ40 fibrillization (CD spectra, TEM); type: biochemical; details: for Aβ40 fibril formation in the presence of peptide at 1:1 ratio (kinetics of CD spectra): authors' reply in review file
# T1 construct: made in house; host or cells: chemical solid-phase peptide synthesis (Fmoc-polyamide), no expression host
# Method: as §1, §2
# Appendix Figure S2. Effect of the designed bipartite peptides on inhibition of A β 40 fibrillization. The peptides were dissolved in 20 mM sodium phosphate buffer with 150 mM KCl and incubated at 25 °C. Peptide concentration is 30 µM for each peptide. The CD spect ra of A β 40 (A), the Aβ 40/R 8-Aβ (25-35) mixture (1:1) (B), and the Aβ 40/DR8-Aβ (25-35) mixture (1:1) (C) were recorded at the indicated incubation times shown in (A). The spectrum change is pointed out by an arrow in (A), indicating the formation of cross-β structure in the am yloid fibrils. (D) The time course of am yloido gen es is of Aβ 40 with and without the designed peptide inhibitors .
# The CD spectra were not smoothed. (A) is the same as Fi g. S1A.
# as §3
# [3] = test system: Aβ40 toxicity to Neuro2a cells; test: Attenuation of Aβ40 cytotoxicity, MTT assay; type: cell-based, mouse; details: Aβ40 30 μM premixed with 30 μM peptide for 24 h at room temperature; Aβ40 alone 30%; MTT 48 h later, N = 12
# Method: (§4) Data information: Peptide concentration is 30 μM for each peptide. Standard deviations of the mean are shown as bars for each sample (N = 6 for pure peptide and N = 12 for mixture). The statistics were done by Student's t‐test. Mouse N2a neuroblastoma cells (ATCC) were cultured in Dulbecco's modified Eagle's medium (DMEM) (HyClone, USA) supplemented with 10% fetal bovine serum (HyClone, USA). Cells were harvested with DMEM and suspended at a density of 3.5 × 10^5 cells/ml. 100 μl from each sample was plated in one well of a 96‐well CellBIND microplate (Corning, USA) and then incubated at 37°C under 5% CO2 for 24 h. Five microliters from each stock peptide (6 mM) in DMSO was diluted with 95 μl of PBS (pH 7.0) and then 900 μl of DMEM to a final concentration of 30 μM.
# [4] = test system: Neuro2a cells; test: Cell viability by MTT assay, peptide alone; type: cell-based, mouse; details: 30 μM peptide, MTT 48 h later, N = 6
# Method: as §4
# T1 sequence (P05067 672-711): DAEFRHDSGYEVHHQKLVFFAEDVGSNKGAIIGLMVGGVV
Compound,amyloid fibril formation (TEM) [1],conformation by CD spectra [1],Aβ40 fibril formation in the presence of peptide at 1:1 ratio (kinetics of CD spectra) [2],"inhibition effect on Aβ40 fibrillization, 1:1 mixture ([2]; Aβ40 30 μM and peptide 30 μM (1:1), pH 7, 25°C, CD)",cell viability with Aβ40 plus equal molar peptide [3],toxicity to the N2a cells [4],inhibition effect on Aβ40 fibrillization at the lowest ratio ([2]; Aβ40 30 μM : peptide 1:0.1),"effect on formation of Aβ40 amyloid fibrils (CD 218 nm, TEM) ([2]; Aβ40 30 μM mixed with peptide at 1:0.1, 1:0.2 or 1:1 molar ratio, pH 7, 25°C)"
CC[C@H](C)[C@H](NC(=O)[C@H](C)NC(=O)CNC(=O)[C@H](CCCCN)NC(=O)[C@H](CC(N)=O)NC(=O)[C@H](CO)NC(=O)CNC(=O)[C@@H](CCCNC(=N)N)NC(=O)[C@@H](CCCNC(=N)N)NC(=O)[C@@H](CCCNC(=N)N)NC(=O)[C@@H](CCCNC(=N)N)NC(=O)[C@@H](CCCNC(=N)N)NC(=O)[C@@H](CCCNC(=N)N)NC(=O)[C@@H](CCCNC(=N)N)NC(=O)[C@@H](CCCNC(=N)N)NC(C)=O)C(=O)N[C@H](C(=O)NCC(=O)N[C@@H](CC(C)C)C(=O)N[C@@H](CCSC)C(N)=O)[C@@H](C)CC [^DR8‐Aβ(25–35)] (Ac-[dR][dR][dR][dR][dR][dR][dR][dR]GSNKGAIIGLM-NH2),did not form amyloid fibrils at all,random coil structure,failed to formed fibrils,inhibition effect was also observed,70–75%,no detectable toxicity,,
Ac-RRRRRRRRGSNKGAIIGLM-NH2 [R8‐Aβ(25–35)],did not form amyloid fibrils at all,random coil structure,failed to formed fibrils,,70–75%,no detectable toxicity,observed even when its concentration was ten times lower than Aβ40,significantly delayed or decreased the formation of Aβ40 amyloid fibrils
